# Laboratory results: US20200330615A1, “NONINVASIVE IMAGING OF FOCAL ATHEROSCLEROTIC LESIONS USING FLUORESCENCE MOLECULAR TOMOGRAPHY” (Washington University, priority 2015, published 2020)
# Entries after “also recorded” stand apart in the source; their conditions may differ. Bridge positions count the residues as written; N and C are the ends. cypate = near infrared fluorescent dye cypate
# Tests used:
# [1] = system: C-type natriuretic peptide receptors (NPR-C) on focal atherosclerotic lesions; assay: In vivo fluorescence molecular tomography (FMT) of focal atherosclerotic lesions in femoral arteries; parameters: species or system New Zealand white rabbits; settings: for integrated fluorescence signal, difference between control and injured arteries, P (unpaired t test, two tailed): n=3
# Text: Carotid artery atherosclerosis is classified as an important cause of stroke. Unstable plaque is characterized by an eccentric neo-intimal lesion with a lipid core covered by a thinning cap of smooth muscle cells, active angiogenesis, increased matrix metalloproteinase activity, and translocation of monocyte/macrophages that transform into foam cells. Timely noninvasive imaging that could signal prerupture plaque progression will reduce the morbidity and mortality by allowing early intervention.^1 Although positron emission tomography (PET) and magnetic resonance imaging (MRI) are routinely used for metabolic and morphologic imaging, these modalities are not suited for frequent monitoring or even screening of at-risk patients because of ionizing radiation (PET) and expense (PET, MRI). Transcutaneous Doppler and intravascular ultrasound are insensitive to the subtle molecular changes of critical importance. Fluorescence molecular tomography (FMT) is an emerging optical imaging technology that allows tomographic and quantitative visualization of molecular events in vivo.^2 In this study, a custom built, fiber-based, portable, video-rate FMT system was used for proof-of-principle studies to detect C-type natriuretic peptide receptors (NPR-C) on focal atherosclerotic lesions in the superficial rabbit femoral arteries. The FMT system consisted of a flexible imaging pad (3 cm×3 cm), containing 12 sources 785 nm 20 kHz, and 830 nm 17-kHz laser diodes as excitation source and reference, respectively.^3 The detectors allowed for dynamic concurrent acquisition of frequency encoded fluorescence emission (830 nm; 20 kHz) and transmission reference (830 nm; 17 kHz) signals for the fast generation of ratio-metric data for tomographic reconstruction of the tissue volume. The system could report varying concentrations (1 nM to 1 M) of indocyanine green at various depths up to 13.5 mm with a depth-dependent spatial resolution on the order of 12 mm.^3
# A model of focal atherosclerotic-like plaques in the femoral arteries (located 1 to 1.5 cm from skin surface) of New Zealand white rabbits was used. All animal studies performed were approved by the Washington University Animal Studies Committee. Endothelial denudation of surgically exposed right femoral artery was induced by air desiccation of the luminal surface as described previously.^4 The uninjured left femoral artery served as the internal control. The animals were maintained on a cholesterol-enriched diet (>200 mg dL in blood), and over time the air desiccation led to a focal lesion. In this animal model, anatomical coregistration was not used because the location of the lesion was apparent due to the surgical markings and identification by the surgeon at each imaging session. In a clinical setting, coregistration of the FMT probe with the ultra sound (US) probe can be utilized. […] Natriuretic peptides (NPs) play an important role in regulating cardiovascular homeostasis. NPR-C (clearance receptor) removes NPs from circulation by receptor mediated endocytosis.^6 A bioconjugate LS668 (Cypate-RSSc[[…]]) (SEQ ID NO:3), consisting of a near infrared (NIR) fluorescent dye cypate conjugated to a targeting peptide, C-type atrial natriuretic peptide, specific for NPR-C was evaluated (FIG. 1A). […] Both injured and control femoral arteries of three animals were imaged at day 3 and weeks 1, 2, 4, 6, and 8 following the surgery. […]
# [2] = parameters: species or system New Zealand white rabbits; settings: rabbit, in vivo
# Text: A model of focal atherosclerotic-like plaques in the femoral arteries (located 1 to 1.5 cm from skin surface) of New Zealand white rabbits was used. All animal studies performed were approved by the Washington University Animal Studies Committee. Endothelial denudation of surgically exposed right femoral artery was induced by air desiccation of the luminal surface as described previously.^4 The uninjured left femoral artery served as the internal control. The animals were maintained on a cholesterol-enriched diet (>200 mg dL in blood), and over time the air desiccation led to a focal lesion. In this animal model, anatomical coregistration was not used because the location of the lesion was apparent due to the surgical markings and identification by the surgeon at each imaging session. […] NPR-C (clearance receptor) removes NPs from circulation by receptor mediated endocytosis.^6 A bioconjugate LS668 (Cypate-RSSc[[…]]) (SEQ ID NO:3), consisting of a near infrared (NIR) fluorescent dye cypate conjugated to a targeting peptide, C-type atrial natriuretic peptide, specific for NPR-C was evaluated (FIG. 1A). […] Integrated fluorescence signal (directly related to the quantity of LS668 in tissue) was calculated from each tissue volume (thresholded at above 20% of respective maximum signal) (FIG. 2H). […]
# [3] = system: NPR-C expressing macrophages; assay: Ex vivo staining of paraffin fixed artery sections with LS668, fluorescence microscopy; parameters: species or system rabbit; fluorescence signal of control artery section after ex vivo staining: dose or concentration left out as unconfirmed; settings: 30 min, 37° C.
# Protocol: FIG. 3A, FIG. 3B and FIG. 3C depict images showing ex vivo studies on the paraffin fixed sections of injured (top row) and control artery (bottom row) sections obtained at 8 weeks postsurgery. FIG. 3A depicts bright field images showing IEL, internal elastic lamina; A, adventitia; M, media; 1° NEO, primary neointima. Scale: 500 m. FIG. 3B depicts corresponding fluorescence images (excitation/emission: 710 75 nm 810 90 nm) after ex vivo staining with LS668. Scale: 500 m. FIG. 3C depicts immunohistochemistry on tissue sections with clone RAM11 antibody (1:100 dilution; blue) for macrophages and counterstained with nuclear fast red. Scale: 250 m. Ex vivo histological validation studies were performed on the arteries at week 8 following the final imaging session. Prior to collecting the arterial segments, the vascular system was flushed with saline and then perfusion fixed with 4% paraformaldehyde and paraffin embedded. Tissue sections were deparaffinized for further studies. […] Histology sections were also stained for macrophages with mouse monoclonal antibody to rabbit macrophages (clone RAM11). Positive signal was visualized using alkaline phosphatase-conjugated secondary antibody and blue substrate, and nuclear fast red counterstain. […] Serial sections were also stained for alpha-smooth muscle actin (SMA).
# NPR-C = molecular target: T1, NPR-C (Homo sapiens, UniProt P17342); assay: Cellular internalization of LS668 in stably transfected 293T-NPR-C cells (fluorescence microscopy); assay type: cell-based; parameters: cellular internalization in presence of excess C-ANF peptide: dose or concentration left out as unconfirmed
# T1 construct: expressed in transfected cells; host or cells: 293T
# T1 sequence (P17342 27-541): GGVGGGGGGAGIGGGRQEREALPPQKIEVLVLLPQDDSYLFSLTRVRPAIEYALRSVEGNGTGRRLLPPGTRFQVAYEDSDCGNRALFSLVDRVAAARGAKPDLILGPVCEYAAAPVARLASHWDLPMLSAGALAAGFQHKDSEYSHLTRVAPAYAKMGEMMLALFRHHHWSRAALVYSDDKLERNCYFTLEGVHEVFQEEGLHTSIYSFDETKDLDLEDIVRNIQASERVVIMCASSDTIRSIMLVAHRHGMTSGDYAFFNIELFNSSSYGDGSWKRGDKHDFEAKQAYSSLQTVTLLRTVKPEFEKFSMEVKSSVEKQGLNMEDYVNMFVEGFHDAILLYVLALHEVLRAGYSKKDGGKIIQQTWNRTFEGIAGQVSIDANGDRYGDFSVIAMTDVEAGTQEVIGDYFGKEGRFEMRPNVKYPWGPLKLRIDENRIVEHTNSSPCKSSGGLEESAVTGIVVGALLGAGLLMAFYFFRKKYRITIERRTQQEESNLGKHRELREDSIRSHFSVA
# [4] = Ex vivo tissue biodistribution, injured vs control femoral artery; assay type: in vivo, New Zealand white rabbits; settings: 24-h post-injection at week 8, n=2
# Text: FIG. 2A, FIG. 2B, FIG. 2C, FIG. 2D, FIG. 2E, FIG. 2F, FIG. 2G, FIG. 2H and FIG. 2I depict images showing coronal (depth=7 mm), sagittal and transverse sections of reconstructed fluorescence molecular tomography (FMT) signal from injured artery (FIG. 2A, FIG. 2B, FIG. 2C) and corresponding control artery (FIG. 2D, FIG. 2E, FIG. 2F) from a representative animal (rabbit 1). White lines indicate the position of the respective sagittal and transverse sections. […] FIG. 2H depicts a graph showing time dependent changes in integrated fluorescence signal (mean SD, n=3) for injured and control arteries (*P=0.0283; **P=0.0282). FIG. 2I depicts a graph showing the mean (n=2) fluorescence intensity obtained from the ex vivo injured artery containing the lesion and the control artery.
# A model of focal atherosclerotic-like plaques in the femoral arteries (located 1 to 1.5 cm from skin surface) of New Zealand white rabbits was used. All animal studies performed were approved by the Washington University Animal Studies Committee. […] NPR-C (clearance receptor) removes NPs from circulation by receptor mediated endocytosis.^6 A bioconjugate LS668 (Cypate-RSSc[[…]]) (SEQ ID NO:3), consisting of a near infrared (NIR) fluorescent dye cypate conjugated to a targeting peptide, C-type atrial natriuretic peptide, specific for NPR-C was evaluated (FIG. 1A). […]
# NPR-A = molecular target: T2, NPR-A (Homo sapiens, UniProt P16066); assay: Cellular internalization of LS668 in control 293T-NPR-A cells (fluorescence microscopy); assay type: cell-based
# T2 construct: expressed in transfected cells; host or cells: 293T
# T2 sequence (P16066 33-1061): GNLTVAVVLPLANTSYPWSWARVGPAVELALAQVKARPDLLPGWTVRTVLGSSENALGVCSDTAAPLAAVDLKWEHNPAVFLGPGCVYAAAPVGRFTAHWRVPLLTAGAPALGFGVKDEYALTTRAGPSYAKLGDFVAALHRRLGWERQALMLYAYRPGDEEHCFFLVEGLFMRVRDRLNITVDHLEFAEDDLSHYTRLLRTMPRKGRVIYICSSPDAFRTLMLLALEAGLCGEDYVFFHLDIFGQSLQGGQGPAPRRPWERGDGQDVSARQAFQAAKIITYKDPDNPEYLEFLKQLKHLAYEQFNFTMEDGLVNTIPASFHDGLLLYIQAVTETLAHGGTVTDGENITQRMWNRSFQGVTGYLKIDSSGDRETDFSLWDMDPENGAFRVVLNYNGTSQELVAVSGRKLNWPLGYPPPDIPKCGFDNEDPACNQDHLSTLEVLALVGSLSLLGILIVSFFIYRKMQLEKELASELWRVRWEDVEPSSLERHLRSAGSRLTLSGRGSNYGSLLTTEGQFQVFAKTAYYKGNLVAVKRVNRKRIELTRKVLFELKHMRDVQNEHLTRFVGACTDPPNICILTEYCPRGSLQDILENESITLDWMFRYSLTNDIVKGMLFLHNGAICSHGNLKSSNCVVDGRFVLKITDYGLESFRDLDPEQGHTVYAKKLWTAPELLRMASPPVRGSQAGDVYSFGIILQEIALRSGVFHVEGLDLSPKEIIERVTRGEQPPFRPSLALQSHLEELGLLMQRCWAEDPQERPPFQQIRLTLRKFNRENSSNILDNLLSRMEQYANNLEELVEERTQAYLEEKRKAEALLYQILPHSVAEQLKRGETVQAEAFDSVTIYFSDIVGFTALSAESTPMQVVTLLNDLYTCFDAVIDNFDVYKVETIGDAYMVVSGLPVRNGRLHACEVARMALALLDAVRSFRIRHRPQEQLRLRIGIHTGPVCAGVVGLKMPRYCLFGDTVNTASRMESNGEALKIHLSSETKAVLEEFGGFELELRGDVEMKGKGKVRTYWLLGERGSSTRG
# [5] = 0.1 mg kg intravenous, FMT 24 h later
substance,measurement,setting,value
Cypate-RSSc[CFGGRIDRIGAC] (cypate-RSSCFGGRIDRIGAC-NH2; disulfide 4-15 (inferred); not fully specified) [LS668],uptake by tissue surrounding the localized fluorescent region,[1]; [5],negligible nonspecific uptake
same,uptake in contralateral noninjured control femoral artery,[1]; [5],negligible background uptake
same,accumulation at focal lesion (reconstructed FMT data),"[1]; 0.1 mg kg intravenous, FMT 24 h later, injured artery, depth of 4 to 16 mm, over 15 mm of length",localized fluorescence signal indicating accumulation of LS668
same,"integrated fluorescence signal, difference between control and injured arteries, P (unpaired t test, two tailed)",[1]; week 2 after surgery,0.0283
same,"integrated fluorescence signal, difference between control and injured arteries, P (unpaired t test, two tailed)",[1]; week 6 after surgery,0.0282
same,time at which clearance from blood was achieved,[2],24 h
same,fluorescence signal of control artery section after ex vivo staining,[3]; week 8 control artery,uniform fluorescence signal akin to nonspecific background
same,fluorescence signal of injured artery section after ex vivo staining,"[3]; LS668 10 M, week 8 injured artery, layers between adventitia and lumen",increased signal
same,cellular internalization in presence of excess C-ANF peptide,NPR-C; 293T-NPR-C cells,Internalization was blocked; also recorded: inhibition of internalization
same,cellular internalization,"NPR-C; LS668, 30-min incubation at 37° C., 5% CO2, stably transfected 293T-NPR-C cells",selectively internalized; also recorded: cellular internalization
same,localization into injured femoral artery as compared to control femoral artery,[4],3.7 fold
same,cellular internalization in control cells,NPR-A,did not internalize; also recorded: absence of internalization
